Reference: BindingDB's records for doi:10.3109/14756360903389872 (Medical University, 2010)

How the values were obtained:
Assay in all cases: Antiamidolytic Assay
[1] = target: Plasminogen (Homo sapiens, UniProt P00747)
Method: (§1) Quantities of 0.2 mL of examined preparation (as control, 0.15 M NaCl), buffer, and 0.1 mL of enzyme solution were mixed together. The mixture was incubated at 37°C for 3 min then the synthetic substrate solution in the same buffer was added. After 20 min of incubation, the reaction was stopped by adding 0.1 mL of 50% acetic acid, and the absorbance of the released p-nitroaniline was measured at 405 nm.

[2] = target: Urokinase-type plasminogen activator (Homo sapiens, UniProt P00749)
Method: as §1

[3] = target: Serine protease 1 (Homo sapiens, UniProt P07477)
Method: as §1

Sequence of Plasminogen (P00747 97-580 limits assumed): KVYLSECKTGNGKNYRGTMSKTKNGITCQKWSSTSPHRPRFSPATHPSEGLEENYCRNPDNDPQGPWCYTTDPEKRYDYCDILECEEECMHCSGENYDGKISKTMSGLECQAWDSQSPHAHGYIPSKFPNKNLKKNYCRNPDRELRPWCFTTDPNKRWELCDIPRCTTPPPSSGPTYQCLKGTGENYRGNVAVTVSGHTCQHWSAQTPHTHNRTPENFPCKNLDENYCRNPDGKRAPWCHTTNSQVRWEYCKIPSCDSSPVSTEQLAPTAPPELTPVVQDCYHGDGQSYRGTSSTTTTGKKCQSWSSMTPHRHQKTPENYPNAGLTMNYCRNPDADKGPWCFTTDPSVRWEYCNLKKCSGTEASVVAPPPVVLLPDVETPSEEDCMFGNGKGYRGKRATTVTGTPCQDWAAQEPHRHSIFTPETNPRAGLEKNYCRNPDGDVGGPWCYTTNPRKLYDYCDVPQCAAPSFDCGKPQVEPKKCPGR
Sequence of Plasminogen (P00747 581-810 limits assumed): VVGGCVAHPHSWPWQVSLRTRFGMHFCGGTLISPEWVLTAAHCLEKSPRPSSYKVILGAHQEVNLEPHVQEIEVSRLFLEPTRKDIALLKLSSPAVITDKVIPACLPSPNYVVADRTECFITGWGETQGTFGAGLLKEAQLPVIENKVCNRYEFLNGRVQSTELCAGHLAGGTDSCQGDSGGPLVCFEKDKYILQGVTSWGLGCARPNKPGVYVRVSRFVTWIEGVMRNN
Sequence of Serine protease 1 (P07477 whole entry): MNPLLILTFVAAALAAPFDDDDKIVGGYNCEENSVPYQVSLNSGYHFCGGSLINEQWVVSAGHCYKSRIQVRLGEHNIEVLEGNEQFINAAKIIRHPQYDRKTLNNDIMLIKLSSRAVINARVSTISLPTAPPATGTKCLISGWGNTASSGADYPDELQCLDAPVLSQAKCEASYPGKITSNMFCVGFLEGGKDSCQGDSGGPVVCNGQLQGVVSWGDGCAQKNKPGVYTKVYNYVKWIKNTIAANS

| IC50 [1] [µM] | Structure (SMILES) | IC50 [2] [µM] | IC50 [3] [µM] |
| --- | --- | --- | --- |
| 20 | Nc1cccc(C(=O)Nc2cccc(C(=O)NCCCNC(=O)c3cccc(NC(=O)c4cccc(N)c4)c3)c2)c1 [Carbocyclic minor groove binder, 4] |  |  |
| 20 | Nc1cccc(C(=O)Nc2cccc(C(=O)NCCCCNC(=O)c3cccc(NC(=O)c4cccc(N)c4)c3)c2)c1 [Carbocyclic minor groove binder, 5] | 10 |  |
| 10 | Nc1cccc(C(=O)Nc2cccc(C(=O)NCCCCCNC(=O)c3cccc(NC(=O)c4cccc(N)c4)c3)c2)c1 [Carbocyclic minor groove binder, 6] | 14 | 20 |

| Structure (SMILES) | IC50 [1] [µM] | IC50 [2] [µM] | IC50 [3] [µM] |
| --- | --- | --- | --- |
| Cn1cc(NC(=O)c2cc(NC(=O)CN=C(N)N)cn2C)cc1C(=O)NCCC(=N)N | 40 | 30 |  |
| N=C(N)c1ccc(OCCCCCOc2ccc(C(=N)N)cc2)cc1 [4-[5-(4-carbamimidoylphenoxy)pentoxy]benzenecarboximidamide;2-oxidanylethanesulfonic acid] | < 10 | 20 | 100 |
